Key:
Type in all cases: biochemical
[1] = molecular target: T1, PI3K α (Homo sapiens, UniProt P42336); test: PI3-kinase HTRF inhibition assay, PI3K α; settings: in vitro
T1 construct: purchased Upstate
Protocol: (§1) Commercial kits or systems for assaying PI3-K activities are available. The commercially available kits or systems can be used to screen for inhibitors and/or agonists of PI3-Ks including but not limited to PI 3-Kinase α, β, δ, and γ. Anr exemplary system is PI 3-Kinase (human) HTRF™ Assay from Upstate. […] Briefly, the assay is a time resolved FRET assay that indirectly measures PIP3 product formed by the activity of a PI3-K. The kinase reaction is performed in a microtitre plate (e.g., a 384 well microtitre plate). The total reaction volume is approximately 20 ul per well. In the first step, each well receives 2 ul of test compound in 20% dimethylsulphoxide resulting in a 2% DMSO final concentration. Next, approximately 14.5 ul of a kinase/PIP2 mixture (diluted in 1× reaction buffer) is added per well for a final concentration of 0.25-0.3 ug/ml kinase and 10 μM PIP2. The plate is sealed and incubated for 15 minutes at room temperature. To start the reaction, 3.5 ul of ATP (diluted in 1× reaction buffer) is added per well for a final concentration of 10 μM ATP. The plate is sealed and incubated for 1 hour at room temperature. The reaction is stopped by adding 5ul of Stop Solution per well and then 5 ul of Detection Mix is added per well. The plate is sealed, incubated for 1 hour at room temperature, and then read on an appropriate plate reader. Data is analyzed and IC50s are generated using GraphPad Prism 5. For PI3K α, β, δ, and γ, the nM concentration of inhibitor to reach IC50 is provided Inhibition of PI3K a at lower concentrations than those for β, δ, and γ provides evidence of specificity within this group of kinases. Similar assays, and others known in the art, can be used to measure the percent inhibition of other kinases, including but not limited to PI3K class II kinases, phosphoinositide 4 kinases (PI4K), and phosphoinositide 5 kinases (PI5K).

[2] = molecular target: T2, PI3K δ (Homo sapiens, UniProt O00329); test: PI3-kinase HTRF inhibition assay, PI3K δ; settings: in vitro
T2 construct: purchased Upstate
Protocol: as §1

[3] = molecular target: T3, PI3K β (Homo sapiens, UniProt P42338); test: PI3-kinase HTRF inhibition assay, PI3K β; settings: in vitro
T3 construct: purchased Upstate
Protocol: as §1

[4] = molecular target: T4, PI3K γ (Homo sapiens, UniProt P48736); test: PI3-kinase HTRF inhibition assay, PI3K γ; settings: in vitro
T4 construct: purchased Upstate
Protocol: as §1

[5] = molecular target: T5, mTORC (Homo sapiens, UniProt P42345); test: mTOR inhibition assay (in vitro IC50)
T5 construct: purchased Invitrogen
Protocol: The cross-activity or lack thereof of one or more compounds of the present invention against mTor can be measured according to any procedures known in the art or methods disclosed below. The compounds described herein can be tested against recombinant mTOR (Invitrogen) in an assay containing 50 mM HEPES, pH 7.5, 1 mM EGTA, 10 mM MgCl2, 2.5 mM, 0.01% Tween, 10 μM ATP (2.5 μCi of […]), and 3 μg/mL BSA. Rat recombinant PHAS-1/4EBP1 (Calbiochem; 2 mg/mL) is used as a substrate. Reactions are terminated by spotting onto nitrocellulose, which is washed with 1M NaCl/1% phosphoric acid (approximately 6 times, 5-10 minutes each). Sheets are dried and the transferred radioactivity quantitated by phosphorimaging.
Other kits or systems for assaying mTOR activity are commercially available. For instance, one can use Invitrogen's LanthaScreen™ Kinase assay to test the inhibitors of mTOR disclosed herein. This assay is a time resolved FRET platform that measures the phosphorylation of GFP labeled 4EBP1 by mTOR kinase. The kinase reaction is performed in a white 384 well microtitre plate. The total reaction volume is 20 ul per well and the reaction buffer composition is 50 mM HEPES pH7.5, 0.01% Polysorbate 20, 1 mM EGTA, 10 mM MnCl2, and 2 mM DTT. In the first step, each well receives 2 ul of test compound in 20% dimethylsulphoxide resulting in a 2% DMSO final concentration. Next, 8 ul of mTOR diluted in reaction buffer is added per well for a 60 ng/ml final concentration. To start the reaction, 10 ul of an ATP/GFP-4EBP1 mixture (diluted in reaction buffer) is added per well for a final concentration of 10 μM ATP and 0.5 μM GFP-4EBP1. The plate is sealed and incubated for 1 hour at room temperature. The reaction is stopped by adding 10 ul per well of a Tb-anti-pT46 4EBP1 antibody/EDTA mixture (diluted in TR-FRET buffer) for a final concentration of 1.3 nM antibody and 6.7 mM EDTA. The plate is sealed, incubated for 1 hour at room temperature, and then read on a plate reader set up for LanthaScreen™ TR-FRET. Data is analyzed and IC50s are generated using GraphPad Prism 5.

T2 sequence (O00329 whole entry): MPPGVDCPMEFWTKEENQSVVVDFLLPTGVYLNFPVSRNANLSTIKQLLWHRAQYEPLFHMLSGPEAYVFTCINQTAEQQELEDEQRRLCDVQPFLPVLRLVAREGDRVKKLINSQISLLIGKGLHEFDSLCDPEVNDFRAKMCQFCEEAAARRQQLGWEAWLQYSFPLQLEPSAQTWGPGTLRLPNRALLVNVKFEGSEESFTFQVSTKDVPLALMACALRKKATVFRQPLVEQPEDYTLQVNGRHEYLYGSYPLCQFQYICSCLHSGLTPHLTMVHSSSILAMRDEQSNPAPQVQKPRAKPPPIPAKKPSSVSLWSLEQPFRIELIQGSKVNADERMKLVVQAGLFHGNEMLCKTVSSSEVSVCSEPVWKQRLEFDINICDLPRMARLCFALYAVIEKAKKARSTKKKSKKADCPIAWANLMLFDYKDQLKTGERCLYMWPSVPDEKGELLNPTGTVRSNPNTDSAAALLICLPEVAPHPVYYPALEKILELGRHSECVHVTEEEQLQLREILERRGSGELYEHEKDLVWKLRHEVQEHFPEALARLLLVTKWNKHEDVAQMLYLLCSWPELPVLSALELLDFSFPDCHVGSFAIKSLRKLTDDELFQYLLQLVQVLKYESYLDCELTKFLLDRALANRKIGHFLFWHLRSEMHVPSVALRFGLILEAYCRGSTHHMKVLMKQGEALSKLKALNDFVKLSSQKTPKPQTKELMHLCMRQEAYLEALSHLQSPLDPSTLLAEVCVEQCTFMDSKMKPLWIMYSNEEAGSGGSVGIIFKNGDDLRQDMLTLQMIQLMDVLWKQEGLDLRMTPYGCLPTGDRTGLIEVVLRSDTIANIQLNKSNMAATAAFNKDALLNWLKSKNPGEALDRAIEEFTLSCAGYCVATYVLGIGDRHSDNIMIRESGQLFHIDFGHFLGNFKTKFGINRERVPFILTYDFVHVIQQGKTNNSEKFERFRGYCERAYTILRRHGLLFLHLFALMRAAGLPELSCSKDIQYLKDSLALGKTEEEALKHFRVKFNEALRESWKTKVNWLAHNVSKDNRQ
T2 sequence (P27986 whole entry partner): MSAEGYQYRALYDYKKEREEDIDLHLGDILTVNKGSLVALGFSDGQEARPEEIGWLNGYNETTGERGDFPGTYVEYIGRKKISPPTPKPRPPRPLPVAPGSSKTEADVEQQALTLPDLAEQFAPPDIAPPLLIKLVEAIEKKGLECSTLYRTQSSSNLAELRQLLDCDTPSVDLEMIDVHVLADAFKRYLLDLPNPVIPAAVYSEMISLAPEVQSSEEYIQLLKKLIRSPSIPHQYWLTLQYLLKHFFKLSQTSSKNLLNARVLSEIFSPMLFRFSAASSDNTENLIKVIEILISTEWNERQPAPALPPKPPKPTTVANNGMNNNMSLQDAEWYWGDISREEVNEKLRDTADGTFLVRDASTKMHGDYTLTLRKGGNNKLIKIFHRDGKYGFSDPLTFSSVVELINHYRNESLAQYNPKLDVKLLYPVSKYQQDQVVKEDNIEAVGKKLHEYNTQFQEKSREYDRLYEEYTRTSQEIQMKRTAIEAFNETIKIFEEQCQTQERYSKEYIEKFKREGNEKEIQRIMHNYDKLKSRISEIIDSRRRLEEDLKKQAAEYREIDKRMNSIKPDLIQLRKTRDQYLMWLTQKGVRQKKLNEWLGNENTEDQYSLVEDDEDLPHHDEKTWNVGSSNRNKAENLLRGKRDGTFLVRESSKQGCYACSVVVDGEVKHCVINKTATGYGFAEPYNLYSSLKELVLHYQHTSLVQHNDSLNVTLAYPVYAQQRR
T4 sequence (P48736 whole entry): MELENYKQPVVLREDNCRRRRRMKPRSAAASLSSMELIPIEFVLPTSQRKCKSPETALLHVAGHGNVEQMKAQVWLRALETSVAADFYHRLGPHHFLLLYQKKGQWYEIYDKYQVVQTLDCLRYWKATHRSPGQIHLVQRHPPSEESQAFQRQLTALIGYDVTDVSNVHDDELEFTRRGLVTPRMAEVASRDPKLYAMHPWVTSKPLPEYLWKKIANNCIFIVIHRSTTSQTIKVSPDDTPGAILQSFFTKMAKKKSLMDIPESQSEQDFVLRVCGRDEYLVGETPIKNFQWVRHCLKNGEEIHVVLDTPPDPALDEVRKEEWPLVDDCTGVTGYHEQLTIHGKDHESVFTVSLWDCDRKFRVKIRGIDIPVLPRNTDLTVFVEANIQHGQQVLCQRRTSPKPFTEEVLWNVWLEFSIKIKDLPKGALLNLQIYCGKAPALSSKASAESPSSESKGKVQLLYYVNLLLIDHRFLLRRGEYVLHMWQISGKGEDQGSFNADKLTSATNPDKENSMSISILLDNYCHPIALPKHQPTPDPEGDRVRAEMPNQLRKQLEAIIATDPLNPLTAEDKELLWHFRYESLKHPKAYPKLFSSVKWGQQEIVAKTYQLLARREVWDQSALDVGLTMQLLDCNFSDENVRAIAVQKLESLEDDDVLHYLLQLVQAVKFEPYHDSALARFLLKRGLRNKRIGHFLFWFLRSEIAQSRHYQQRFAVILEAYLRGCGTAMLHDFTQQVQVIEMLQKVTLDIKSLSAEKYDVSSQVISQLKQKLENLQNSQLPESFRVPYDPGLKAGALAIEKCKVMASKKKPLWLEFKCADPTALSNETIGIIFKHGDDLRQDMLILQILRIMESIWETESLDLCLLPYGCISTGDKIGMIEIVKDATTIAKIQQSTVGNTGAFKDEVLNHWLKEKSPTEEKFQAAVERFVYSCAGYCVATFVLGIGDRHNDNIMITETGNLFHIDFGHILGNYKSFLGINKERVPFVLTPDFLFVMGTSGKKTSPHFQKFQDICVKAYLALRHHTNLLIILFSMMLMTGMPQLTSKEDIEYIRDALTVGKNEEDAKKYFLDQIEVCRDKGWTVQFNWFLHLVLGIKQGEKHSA
T1 sequence (P42336 whole entry): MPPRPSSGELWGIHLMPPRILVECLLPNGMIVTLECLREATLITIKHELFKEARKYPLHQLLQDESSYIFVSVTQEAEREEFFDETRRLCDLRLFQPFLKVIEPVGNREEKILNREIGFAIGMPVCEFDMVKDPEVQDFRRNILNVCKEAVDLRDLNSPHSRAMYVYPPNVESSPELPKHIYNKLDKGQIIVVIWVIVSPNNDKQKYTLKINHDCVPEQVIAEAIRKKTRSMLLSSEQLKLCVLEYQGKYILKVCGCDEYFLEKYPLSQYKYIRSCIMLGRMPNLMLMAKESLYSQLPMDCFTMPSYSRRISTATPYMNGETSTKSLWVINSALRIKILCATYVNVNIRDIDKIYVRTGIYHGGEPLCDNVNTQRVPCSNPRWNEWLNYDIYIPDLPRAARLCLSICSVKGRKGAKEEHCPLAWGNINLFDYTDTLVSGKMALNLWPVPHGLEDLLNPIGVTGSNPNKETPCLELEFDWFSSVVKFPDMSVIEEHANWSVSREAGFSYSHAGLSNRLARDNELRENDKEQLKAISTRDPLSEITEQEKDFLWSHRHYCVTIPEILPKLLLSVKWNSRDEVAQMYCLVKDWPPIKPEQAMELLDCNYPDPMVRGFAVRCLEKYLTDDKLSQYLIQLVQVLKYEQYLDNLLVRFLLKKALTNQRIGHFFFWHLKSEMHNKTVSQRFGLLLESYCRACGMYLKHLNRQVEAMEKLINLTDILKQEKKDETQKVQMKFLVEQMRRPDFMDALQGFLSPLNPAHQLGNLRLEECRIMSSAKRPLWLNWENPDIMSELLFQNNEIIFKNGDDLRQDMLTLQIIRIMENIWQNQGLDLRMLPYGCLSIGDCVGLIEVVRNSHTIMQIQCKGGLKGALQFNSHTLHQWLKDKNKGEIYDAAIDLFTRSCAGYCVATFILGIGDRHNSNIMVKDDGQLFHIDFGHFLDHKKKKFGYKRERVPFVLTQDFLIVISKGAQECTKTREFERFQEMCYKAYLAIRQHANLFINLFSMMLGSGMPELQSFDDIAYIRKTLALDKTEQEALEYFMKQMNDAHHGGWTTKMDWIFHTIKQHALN
T1 sequence (P27986 whole entry partner): as the sequence (P27986 whole entry partner) above
T3 sequence (P42338 whole entry): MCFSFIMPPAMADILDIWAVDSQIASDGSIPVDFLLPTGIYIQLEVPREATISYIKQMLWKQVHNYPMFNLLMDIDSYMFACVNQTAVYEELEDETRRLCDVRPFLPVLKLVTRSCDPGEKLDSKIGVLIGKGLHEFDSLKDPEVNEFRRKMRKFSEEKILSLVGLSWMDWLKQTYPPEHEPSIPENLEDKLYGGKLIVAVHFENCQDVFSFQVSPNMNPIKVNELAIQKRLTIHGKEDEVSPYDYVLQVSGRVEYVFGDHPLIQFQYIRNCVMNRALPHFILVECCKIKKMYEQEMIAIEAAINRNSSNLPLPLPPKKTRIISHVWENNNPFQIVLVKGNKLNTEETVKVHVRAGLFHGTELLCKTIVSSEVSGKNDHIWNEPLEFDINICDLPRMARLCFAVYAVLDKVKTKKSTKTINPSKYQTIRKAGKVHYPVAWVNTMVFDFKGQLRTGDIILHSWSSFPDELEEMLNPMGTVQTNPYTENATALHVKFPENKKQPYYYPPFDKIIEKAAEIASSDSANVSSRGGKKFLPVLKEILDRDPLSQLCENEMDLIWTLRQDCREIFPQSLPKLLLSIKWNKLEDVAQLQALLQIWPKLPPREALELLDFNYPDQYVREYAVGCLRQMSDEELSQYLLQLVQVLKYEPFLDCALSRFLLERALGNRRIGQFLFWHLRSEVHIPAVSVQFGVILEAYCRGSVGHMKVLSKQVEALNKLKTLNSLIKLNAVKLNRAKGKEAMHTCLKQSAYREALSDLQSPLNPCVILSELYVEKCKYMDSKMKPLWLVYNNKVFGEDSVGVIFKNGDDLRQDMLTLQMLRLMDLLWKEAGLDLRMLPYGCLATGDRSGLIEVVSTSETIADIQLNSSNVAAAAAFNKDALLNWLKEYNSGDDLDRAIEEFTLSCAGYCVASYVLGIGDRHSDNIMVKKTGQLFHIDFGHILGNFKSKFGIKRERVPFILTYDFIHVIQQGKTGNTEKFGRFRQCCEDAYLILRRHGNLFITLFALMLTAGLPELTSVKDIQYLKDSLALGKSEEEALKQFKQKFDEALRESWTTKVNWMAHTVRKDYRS
T3 sequence (P27986 whole entry partner): as the sequence (P27986 whole entry partner) above

## Cc1cc(-c2ccc3nc(N)oc3c2)cn2c(N3CCN(C)CC3)nnc12 [Compound 17]
[1]
  IC50: > 10 µM
[2]
  IC50: > 10 µM
[3]
  IC50: > 10 µM
[4]
  IC50: > 10 µM

## CN1CCN(CCc2nnc3ccc(-c4ccc5nc(N)oc5c4)cn23)CC1 [Compound 16]
[1]
  IC50: > 10 µM
[2]
  IC50: > 10 µM
[3]
  IC50: > 10 µM
[4]
  IC50: > 10 µM

## O=C(c1cnc2ccc(-c3cncc4c3cnn4CCO)cn12)N1CCOCC1 [Compound 10]
[1]
  IC50: > 10 µM
[2]
  IC50: > 10 µM
[3]
  IC50: > 10 µM
[4]
  IC50: > 10 µM

## Nc1nc2ccc(-c3ccc4ncc(C(=O)N5CCOCC5)n4c3)cc2[nH]1 [Compound 15]
[1]
  IC50: < 1 µM
[2]
  IC50: > 10 µM
[3]
  IC50: > 10 µM
[4]
  IC50: > 10 µM

## CN1CCN(Cc2nnc3ccc(-c4ccc5nc(N)oc5c4)cn23)CC1 [Compound 18]
[1]
  IC50: > 10 µM
[2]
  IC50: > 10 µM
[3]
  IC50: > 10 µM
[4]
  IC50: > 10 µM

## Cc1cc(-c2ccc3nc(N)oc3c2)cn2c(CCN3CCN(C)CC3)nnc12 [Compound 19]
[1]
  IC50: > 10 µM
[2]
  IC50: > 10 µM
[3]
  IC50: > 10 µM
[4]
  IC50: > 10 µM

## Nc1nc2cc(-c3ccc4ncc(C(=O)NCCOCC(=O)O)n4c3)ccc2o1 [Compound 22]
[1]
  IC50: < 0.1 µM
[3]
  IC50: < 1 µM
[4]
  IC50: < 0.1 µM

## Cc1cc(-c2ccc3nc(N)oc3c2)cn2c(-c3ccncc3)nnc12 [Compound 14]
[1]
  IC50: > 10 µM
[2]
  IC50: > 10 µM
[3]
  IC50: < 10 µM
[4]
  IC50: > 10 µM

## Nc1nc2cc(-c3cnc4ccc(C(=O)N5C6CCC5COC6)cn34)ccc2o1 [Compound 11]
[1]
  IC50: > 10 µM
[2]
  IC50: > 10 µM
[3]
  IC50: > 10 µM
[4]
  IC50: > 10 µM

## Cc1ncc(-c2ccc3ncc(C(=O)N4C5CCC4COC5)n3c2)c2cn[nH]c12 [Compound 9]
[1]
  IC50: < 0.1 µM
[2]
  IC50: < 10 µM
[3]
  IC50: > 10 µM
[5]
  IC50: > 10 µM
[4]
  IC50: > 10 µM

## Cc1ncc(-c2ccc3ncc(C(=O)N4CCOCC4)n3c2)c2cc[nH]c12 [Compound 7]
[1]
  IC50: < 10 µM
[2]
  IC50: > 10 µM
[3]
  IC50: > 10 µM
[4]
  IC50: > 10 µM

## Cn1ncc2c(-c3ccc4ncc(C(=O)N5CCOCC5)n4c3)cncc21 [Compound 8]
[1]
  IC50: < 10 µM
[2]
  IC50: > 10 µM
[3]
  IC50: > 10 µM
[4]
  IC50: < 10 µM

## Nc1nc2cc(-c3cnc4ccc(C(=O)N5CCOCC5)cn34)ccc2o1 [Compound 12]
[1]
  IC50: > 10 µM
[2]
  IC50: > 10 µM
[3]
  IC50: > 10 µM

## O=C(c1cnc2ccc(-c3cnc4cn[nH]c4c3)cn12)N1CCOCC1 [Compound 6]
[2]
  IC50: > 10 µM
[3]
  IC50: > 10 µM
[4]
  IC50: > 10 µM

## Cc1cc(-c2ccc3nc(N)oc3c2)cn2c(CN3CCN(C)CC3)nnc12 [Compound 20]
[1]
  IC50: > 10 µM
[2]
  IC50: > 10 µM
[3]
  IC50: > 10 µM
[4]
  IC50: > 10 µM

## Cc1ncc(-c2ccc3ncc(C(=O)N4CCOCC4)n3c2)c2cn[nH]c12 [Compound 1]
[1]
  IC50: < 0.1 µM
[2]
  IC50: < 10 µM
[3]
  IC50: > 10 µM
[4]
  IC50: > 10 µM

## [2H]c1c(-c2ccc3ncc(C(=O)N4CCOCC4)n3c2)c([2H])c2nc(N)oc2c1[2H] [Compound 2]
[1]
  IC50: < 0.1 µM
[2]
  IC50: > 10 µM
[3]
  IC50: < 10 µM
[4]
  IC50: < 0.1 µM

## O=C(c1cnc2ccc(-c3cnc4cc[nH]c4c3)cn12)N1CCOCC1 [Compound 5]
[1]
  IC50: < 10 µM
[2]
  IC50: > 10 µM
[3]
  IC50: > 10 µM
[4]
  IC50: > 10 µM

## Nc1nc2cc(-c3ccc4ncc(C(=O)NCCOCCO)n4c3)ccc2o1 [Compound 21]
[1]
  IC50: < 1 µM
[2]
  IC50: < 10 µM
[3]
  IC50: < 10 µM
[4]
  IC50: < 1 µM

## O=C(c1cnc2ccc(-c3ccnc4[nH]ncc34)cn12)N1CCOCC1 [Compound 3]
[1]
  IC50: < 10 µM
[2]
  IC50: > 10 µM
[3]
  IC50: > 10 µM
[5]
  IC50: > 10 µM
[4]
  IC50: > 10 µM

## CN1CC2CN(C(=O)c3cnc4ccc(-c5ccc6oc(N)nc6c5)cn34)CC2C1 (stereo not shown) [Compound 4]
[1]
  IC50: < 0.1 µM
[2]
  IC50: < 1 µM
[3]
  IC50: < 1 µM
[5]
  IC50: > 10 µM
[4]
  IC50: < 1 µM

## CN1CCN(c2nnc3ccc(-c4ccc5nc(N)oc5c4)cn23)CC1 [Compound 13]
[1]
  IC50: > 10 µM
[2]
  IC50: > 10 µM
[3]
  IC50: > 10 µM
[4]
  IC50: > 10 µM

Source: patent US9127000B2, “Heterocyclic compounds and uses thereof” (Intellikine, LLC., priority 2011, dated 2015)
